Measurements: US8388931B2, “99m Tc-labeled triphenylphosphonium derivative contrasting agents and molecular probes for early detection and imaging of breast tumors” (priority 2008, dated 2013)

What was measured:
[1] = Radio-stability in physiological buffer by radioHPLC; assay type: physicochemical
Method: Mito10-MAG3 was radiolabeled with ^99mTc, using a protocol previously reported with minor modifications. Specifically, an aliquot of Mito10-MAG3 (30 μg) was re-suspended in 450 μl of freshly prepared labeling solution containing 7.5 mg tartaric acid, 9.5 mg ammonium acetate, 10 μg stannous chloride, pH 8.3. After the addition of ^99mTc pertechnetate (3 mCi), the labeling mixture was incubated at 65° C. for one hour. For quality control purposes, the radiolabeled product was routinely analyzed by radioHPLC (4.6×250 mm C18 reversed phase column) at room temperature, with the following method.
Buffer A contained 10 mM phosphate buffer (pH 6.8) and buffer B contained 100% acetonitrile. A baseline of 90% A and 10% B was run for 10 min, followed by a linear gradient with the mobile phase reaching 10% A and 90% B at 40 min. To determine the radio-stability, the radiopharmaceutical was maintained in physiological buffer for up to 48 hours, and the radiochemical purity was examined by radioHPLC.

[2] = system: DMBA-induced breast carcinoma; test: In vivo gamma camera imaging of DMBA-induced breast carcinoma in rats; design: species or system rats (female Sprague Dawley)
Method: The animal protocol was approved by institutional IACUC review and followed NIH guidelines. The rat model of DMBA-induced breast carcinoma was used.
As an initial feasibility study, rats were induced with 65 mg/kg DMBA dissolved in sesame oil via a single oral gavage to the stomach. […] Static images were acquired on a GE XRT gamma camera using a high-resolution parallel-hole collimator, 512×512 matrix size, 22.5×22.5 cm field of view, 140±15 keV energy window, 100 k counts. Unexpectedly, apart from the established palpable carcinomas, additional small (millimeter size) tumors were discovered by this imaging technique in the same animals. This finding promoted a longitudinal study to investigate the early detection of neoplastic growth using ^99mTc-Mito10-MAG3.
Six 48-day-old female rats were injected with 65 mg/kg DMBA. At each week after DMBA induction, the rats were imaged using the following protocol. Each rat was anesthetized with 1.6% isoflurane in room air supplemented with oxygen. […] Dynamic images were continuously acquired at one frame per min for 90 min using the imaging parameters set forth hereinabove. The weekly imaging regiment was continued for all six rats until palpable tumors became detectable, which typically takes place between seven to nine weeks after the administration of DMBA. Due to the relatively short physical half-life of ^99mTc (6 hr), no residual signal, therefore, no cross-contamination is detectable from the previous injection the week before.
^99mTc-MIBI of clinical formulation was purchased from Bristol Myers Squibb. […] Dynamic images were acquired in identical fashion following 99mTc-MIBI injection.
The female Sprague Dawley rats have six pairs of mammary glands, among which glands a and b are away from the hepatic/gastrointestinal region. (FIG. 9, Panel A). Since the typical biodistribution of a lipophilic radiopharmaceutical in the abdominal region precludes reliable imaging of breast tissues below the diaphragm, mammary glands shown in Panels C, D, E and F were excluded from the data analysis. This exclusion also was based on the fact that such spatial distribution of mammary glands is irrelevant to that of the human anatomy.
Imaging data analysis was carried out using an inbuilt software, by carefully drawing a region of interest (ROI) on the tumor site to determine the radioactivity counts in the ROI. […] Radioactivity counts were determined in each ROI. Tumor-to-normal and tumor-to-muscle ratios were calculated as the count ratio between the two ROIs.
The rats were sacrificed by CO2 asphyxiation and the number and location of the mammary tumors were recorded at necropsy. The tumors were dissected, with the diameter and weight measured and documented. […]

CC(=O)[S+]1CC(=O)[N]2CC(=O)[N]3CC(=O)[N](CC(=O)NCCCCCCCCCC[P+](c4ccccc4)(c4ccccc4)c4ccccc4)[99Tc]321=[O].[Br-] (stereo not shown) [^99mTc-Mito10-MAG3]
time radioactivity bound to Mito10-MAG3 remained persistent after labeling ([1]; physiological solution, radioHPLC): at least 48 hours | change in radiochemical purity after radiolabeling ([1]; radioHPLC at 0, 24 and 48 hr after radiolabeling): no significant change in radiochemical purity | uptake in small breast tumors that escaped detection by palpation ([2]; 15 μg via tail vein, gamma camera): significant focal uptake | weight of small non-palpable tumor detected by imaging ([2]; feasibility experiment, 11 weeks after DMBA induction, at dissection): 18 mg
